Test [1] deals with T1, human TLR7 (Homo sapiens, UniProt Q9NYK1).
T1 construct: host or cells: HEK blue hTLR7 reporter cells
T1 sequence (Q9NYK1 27-1049): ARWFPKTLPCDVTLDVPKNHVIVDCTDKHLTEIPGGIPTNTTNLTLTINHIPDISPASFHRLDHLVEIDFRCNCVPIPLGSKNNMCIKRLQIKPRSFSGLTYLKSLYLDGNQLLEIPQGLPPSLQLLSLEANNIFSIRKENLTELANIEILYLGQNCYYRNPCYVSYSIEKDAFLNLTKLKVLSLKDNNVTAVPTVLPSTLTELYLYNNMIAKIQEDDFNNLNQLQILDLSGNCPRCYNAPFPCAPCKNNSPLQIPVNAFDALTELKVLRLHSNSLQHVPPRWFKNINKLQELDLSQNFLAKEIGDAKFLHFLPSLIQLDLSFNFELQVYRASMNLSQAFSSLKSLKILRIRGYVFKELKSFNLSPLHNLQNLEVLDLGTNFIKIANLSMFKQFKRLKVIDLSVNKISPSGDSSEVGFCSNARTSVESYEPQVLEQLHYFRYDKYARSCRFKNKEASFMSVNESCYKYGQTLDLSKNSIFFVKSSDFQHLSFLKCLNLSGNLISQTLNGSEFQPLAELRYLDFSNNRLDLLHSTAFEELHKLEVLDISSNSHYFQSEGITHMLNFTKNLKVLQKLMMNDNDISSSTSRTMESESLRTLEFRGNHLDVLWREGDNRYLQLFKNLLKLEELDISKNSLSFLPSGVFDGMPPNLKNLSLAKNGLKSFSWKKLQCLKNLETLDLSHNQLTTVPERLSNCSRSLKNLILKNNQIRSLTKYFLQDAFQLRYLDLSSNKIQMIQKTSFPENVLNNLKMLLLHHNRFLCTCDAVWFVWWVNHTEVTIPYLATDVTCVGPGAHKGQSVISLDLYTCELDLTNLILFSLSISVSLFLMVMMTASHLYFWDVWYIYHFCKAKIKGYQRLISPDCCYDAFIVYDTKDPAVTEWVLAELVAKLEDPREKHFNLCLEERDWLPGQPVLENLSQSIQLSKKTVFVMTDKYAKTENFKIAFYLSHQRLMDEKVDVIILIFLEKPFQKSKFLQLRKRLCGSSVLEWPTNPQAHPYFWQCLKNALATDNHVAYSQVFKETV
Briefly: HEK-Blue hTLR7 SEAP reporter assay. The test is classed as cell-based. As to conditions: for pEC50: 95% CI, HEK-blue human TLR7, 24 h, read-out: TLR7 EC50; for EC50: Figure S3, axis c/[µM], pooled from 3 experiments, read-out: compound-specific EC50 in dose response plot, HEK Blue hTLR7; for TLR7 activity rel. to assay max: average maximal SEAP secretion relative to maximum secretion observed in the assay. Here is the method:
HEK blue hTLR7 or hTLR8 reporter cells (Invivogen) were cultivated in DMEM High Glucose (Biowest) according to the manufacturer’s instructions. Cells were treated with test compounds and controls at various concentrations in serum-free DMEM and incubated at 37°C, 5% CO2 for 24 h before supernatants were collected.
Relative secreted embryonic alkaline phosphatase (SEAP) activity in the supernatants was determined by quantification of para-Nitrophenyl Phosphate (pNPP)-turnover. Supernatants were diluted 10-fold in a solution containing 1 mM MgCl2, 1 M diethanolamine and 1 mg/mL pNPP and incubated at RT for 15 min before the reaction was stopped by the addition of 0.25 volumes of 1 M NaOH. Absorbance was measured at 405 nm on a Versamax microplate reader (Molecular Devices) and normalized to the mean of >5 solvent controls.
To obtain reliable estimates, replicate measurements of a minimum of 2 experiments were normalized to the maximal SEAP activity of a compound in a given experiment and pooled before fitting a non-linear function to the data.
A general note: Reporter assays use an easily measured gene product as a stand-in for the process of interest.

Test [2] concerns TNFα and IFNα in peripheral plasma. Briefly: Cytokine profile in peripheral plasma after equimolar s.c. doses (Figure 4B, Table 2 top). In kind it is in vivo, C57BL/6 mice. The note with it: for IFNα AUC / TNFα AUC: 8 h period, equimolar doses (top section), pooled plasma of 3 animals; for IFNα plasma levels over the study period: in words. Here is the method:
Cytokine concentrations in samples were quantified either by ELISA (hTNFα, R&D Systems; hIFNα, Mabtech) or cytometric bead arrays (CBA, LegendPlex mouse anti-virus response panel, BioLegend) according to the manufacturer’s instructions. CBAs were acquired on a ZE5 Cell Analyzer (Bio-Rad) and analyzed using the LegendPlex Software Suite (Qognit/BioLegend). Absorbance of ELISA-samples was quantified using a Versamax microplate reader (Molecular Devices).
Formulation. Test compounds were prepared for application in either 1% Tween 80, 9% PEG400 in ultrapure water (Biowest) (i.v., i.p., p.o. application) or 5 mM citric acid in 0.9% saline (Braun) (subcutaneous application). If compounds were administered subcutaneously, injections were carried out into the neck crease.
Collection of Samples. Mice were bled from the tail vein at various timepoints. Heparin (Sigma) or K2-EDTA (Sigma) was added to blood samples to a final […] concentration of 10-15 Unit or 5 mM. Plasma was generated by centrifugation at 6800xg for 8 min at 4°C and stored at -80°C until analyzed by ELISA or CBA. Animals were sacrificed after the indicated time points by CO2 inhalation. Heart blood and organs for compound quantification by HPLC-MS/MS were collected post mortem and stored at –20°C until extracted as described above.
(A) Organs were sampled 8 h after treatment and compound concentration was determined via HPLC-MS/MS. Data are presented as mean ± SD. (B) Cytokine levels in tail plasma over time were determined via cytometric bead array. At each sampling timepoint the plasma of mice in one treatment group was pooled.

The results in this text go back to paper PMC10319141, “Imidazoquinolines with improved pharmacokinetic properties induce a high IFNα to TNFα ratio in vitro and in vivo” (Frontiers in Immunology, 2023).

pEC50: −log10 of the molar value. Where two headings read alike, the source gives them in different places.

One may read the pEC50 as the EC50 on a negative log10 scale, so that one unit is a factor of ten. The EC50 is the concentration giving half of the maximal effect.

Consider `CCCCc1nc2c(N)nc3ccccc3c2n1CCC1CCNCC1` [A1], for which, in test [1], the “Average maximal activity in HEK-Blue hTLR7 relative to RSQ” value turned out to be 58%, the pEC50 is 6.66 to 7.02, the EC50 was 0.146 µM and the “TLR7 activity rel. to assay max” value is 58% ± 16%. Further, in test [2] (3 µmol/kg s.c.), the “IFNα AUC” value was 660000 pg·min/mL and the “TNFα AUC” value is 6500 pg·min/mL. For the same molecule, in test [2] (6 µmol/kg s.c.), the “IFNα AUC” value was determined as 1.3e+06 pg·min/mL and the “TNFα AUC” value was 17000 pg·min/mL. Further, in test [2] (12 µmol/kg s.c.), the “IFNα AUC” value amounted to 2.5e+06 pg·min/mL and the “TNFα AUC” value was determined as 35000 pg·min/mL. Also, in test [2] (3, 6, 12 µmol/kg s.c.), the “time of TNFα plasma peak post treatment” value is 120 min and the “IFNα plasma levels over the study period” value is reported as “stayed elevated over the 8 h period”.
With `CCOCc1nc2c(N)nc3ccccc3c2n1CC(C)(C)O` [RSQ, Resiquimod, reference compound], the “TLR7 activity rel. to assay max” value in test [1] is given as 95% ± 5%. For the same molecule, the “TNFα plasma AUC, times larger than the area for any A1 or A1-mac treated group” value in test [2] (3 µmol/kg RSQ s.c.) is “about 4 times”. Further, in test [2] (3 µmol/kg s.c.), the “IFNα AUC” value turned out to be 2.2e+06 pg·min/mL and the “TNFα AUC” value came to 330000 pg·min/mL. Also, in test [2] (6 µmol/kg s.c.), the “IFNα AUC” value came to 780000 pg·min/mL and the “TNFα AUC” value stood at 280000 pg·min/mL. Moreover, in test [2] (12 µmol/kg s.c.), the “IFNα AUC” value is 800000 pg·min/mL and the “TNFα AUC” value stood at 260000 pg·min/mL. In addition, in test [2] (3, 6, 12 µmol/kg s.c.), the “peak TNFα concentrations, times higher than in A1 or A1-mac groups” value is recorded as “over 10 times”; the “time at which TNFα and IFNα plasma levels fall close to baseline” value was determined as 240 min; the “time of IFNα plasma peak post treatment” value turned out to be 90 min; the “time of TNFα plasma peak post treatment” value is given as 90 min. Besides, the “time of maximal IFNα plasma levels post application” value in test [2] (abstract, in vivo murine) is on record as 1 h.
In the case of `CCCCc1nc2c(N)nc3ccccc3c2n1CC1CCN(C(=O)CN(C)CC(=O)N(C)[C@H]2C[C@@H](C)O[C@@H](O[C@@H]3[C@@H](C)[C@H](O[C@H]4C[C@@](C)(OC)[C@@H](O)[C@H](C)O4)[C@@H](C)C(=O)O[C@H](CC)[C@@](C)(O)[C@H](O)[C@@H](C)N(C)C[C@H](C)C[C@@]3(C)O)[C@@H]2O)CC1` [A2-mac], in test [1], the “Average maximal activity in HEK-Blue hTLR7 relative to RSQ” value worked out at 63%, the pEC50 is 5.70 to 5.82, the EC50 was 1.76 µM and the “TLR7 activity rel. to assay max” value is on record as 63% ± 9%.
`CCCCc1nc2c(N)nc3ccccc3c2n1CCC1CCN(C(=O)CN(C)CC(=O)N(C)C2CC(C)OC(OC3C(C)C(OC4CC(C)(OC)C(O)C(C)O4)C(C)C(=O)OC(CC)C(C)(O)C(O)C(C)N(C)CC(C)CC3(C)O)C2O)CC1` (centres unmarked) [A1-mac]: in test [1], the “Average maximal activity in HEK-Blue hTLR7 relative to RSQ” value came out at 41%, the pEC50 was 6.13 to 6.40, the EC50 was found to be 0.554 µM and the “TLR7 activity rel. to assay max” value was 41% ± 8%. In test [2] (3 µmol/kg s.c.), the “IFNα AUC” value turned out to be 420000 pg·min/mL and the “TNFα AUC” value was 6900 pg·min/mL. For the same molecule, in test [2] (6 µmol/kg s.c.), the “IFNα AUC” value turned out to be 920000 pg·min/mL and the “TNFα AUC” value amounted to 24000 pg·min/mL. Moreover, in test [2] (12 µmol/kg s.c.), the “IFNα AUC” value came out at 3.1e+06 pg·min/mL and the “TNFα AUC” value is 76000 pg·min/mL. Further, in test [2] (3, 6, 12 µmol/kg s.c.), the “time of TNFα plasma peak post treatment” value is on record as 90 min and the “IFNα plasma levels over the study period” value is on record as “stayed elevated over the 8 h period”.
